Experimental data: PubChem BioAssay (NCI)
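GI50 marks 50% less growth. At the TGI there is no net growth.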

Columns and labels:
Assay in all cases: NCI-60 cell line screen, 384-well format
PC-3 prostate = tested on: PC-3 prostate
OVCAR-4 ovarian = tested on: OVCAR-4 ovarian
M14 melanoma = tested on: M14 melanoma
HS 578T breast = tested on: HS 578T breast
ACHN renal = tested on: ACHN renal
IGROV1 ovarian = tested on: IGROV1 ovarian
U251 glioblastoma = tested on: U251 glioblastoma
A549 NSCLC = tested on: A549 NSCLC
HCT-116 colon = tested on: HCT-116 colon
NCI-H460 NSCLC = tested on: NCI-H460 NSCLC
MDA-MB-231 breast = tested on: MDA-MB-231 breast
UO-31 renal = tested on: UO-31 renal
HOP-92 NSCLC = tested on: HOP-92 NSCLC
SF-268 CNS = tested on: SF-268 CNS
A498 renal = tested on: A498 renal
MDA-MB-468 breast = tested on: MDA-MB-468 breast
NCI-H322M lung = tested on: NCI-H322M lung
NCI-H23 lung = tested on: NCI-H23 lung
SK-OV-3 ovarian = tested on: SK-OV-3 ovarian
KM12 colon = tested on: KM12 colon
SF-539 CNS = tested on: SF-539 CNS
SF-295 CNS = tested on: SF-295 CNS
SK-MEL-5 melanoma = tested on: SK-MEL-5 melanoma
HCC-2998 colon = tested on: HCC-2998 colon
NCI/ADR-RES ovarian = tested on: NCI/ADR-RES ovarian
UACC-62 melanoma = tested on: UACC-62 melanoma
HCT-15 colon = tested on: HCT-15 colon
TK-10 renal = tested on: TK-10 renal
LOX IMVI melanoma = tested on: LOX IMVI melanoma
HT29 colon = tested on: HT29 colon
NCI-H522 lung = tested on: NCI-H522 lung
MCF7 breast = tested on: MCF7 breast
SNB-19 CNS = tested on: SNB-19 CNS
CAKI-1 renal = tested on: CAKI-1 renal
SNB-75 CNS = tested on: SNB-75 CNS
HL-60(TB) leukemia = tested on: HL-60(TB) leukemia
HOP-62 NSCLC = tested on: HOP-62 NSCLC
K-562 leukemia = tested on: K-562 leukemia
OVCAR-8 ovarian = tested on: OVCAR-8 ovarian
OVCAR-3 ovarian = tested on: OVCAR-3 ovarian
RXF 393 renal = tested on: RXF 393 renal
786-0 renal = tested on: 786-0 renal
MALME-3M melanoma = tested on: MALME-3M melanoma
CCRF-CEM leukemia = tested on: CCRF-CEM leukemia
MDA-MB-435 melanoma = tested on: MDA-MB-435 melanoma
DU-145 prostate = tested on: DU-145 prostate
SR leukemia = tested on: SR leukemia
SW-620 colon = tested on: SW-620 colon
UACC-257 melanoma = tested on: UACC-257 melanoma
SK-MEL-28 melanoma = tested on: SK-MEL-28 melanoma
EKVX NSCLC = tested on: EKVX NSCLC
BT-549 breast = tested on: BT-549 breast
SN12C renal = tested on: SN12C renal
MOLT-4 leukemia = tested on: MOLT-4 leukemia
NCI-H226 lung = tested on: NCI-H226 lung
T-47D breast = tested on: T-47D breast
RPMI-8226 leukemia = tested on: RPMI-8226 leukemia
COLO 205 colon = tested on: COLO 205 colon

Question: With `Cc1ccccc1C(C(=O)NC1CCCCC1)N(C(=O)CNc1ccc(C#N)cc1)c1cccc(F)c1` (stereo unspecified) as the compound, how does the GI50 (PC-3 prostate) read?
Answer: 7.84 µM

Question: What about the TGI (PC-3 prostate) of the same compound?
Answer: 56.1 µM

Question: And the GI50 (OVCAR-4 ovarian)?
Answer: 5.82 µM

Question: What about the TGI (OVCAR-4 ovarian) of the same compound?
Answer: 31.5 µM

Question: What about the GI50 (M14 melanoma) of the same compound?
Answer: 2.56 µM

Question: What about the TGI (M14 melanoma) of the same compound?
Answer: 13.1 µM

Question: What about the GI50 (HS 578T breast) of the same compound?
Answer: 3.36 µM

Question: And the TGI (HS 578T breast)?
Answer: 20.1 µM

Question: What about the GI50 (ACHN renal) of the same compound?
Answer: 11.6 µM

Question: And the TGI (ACHN renal)?
Answer: > 100 µM

Question: And the GI50 (IGROV1 ovarian)?
Answer: 8.13 µM

Question: And the TGI (IGROV1 ovarian)?
Answer: 88.7 µM

Question: And the GI50 (U251 glioblastoma)?
Answer: 15.7 µM

Question: What about the TGI (U251 glioblastoma) of the same compound?
Answer: > 100 µM

Question: What about the GI50 (A549 NSCLC) of the same compound?
Answer: 25 µM

Question: And the TGI (A549 NSCLC)?
Answer: > 100 µM

Question: What about the GI50 (HCT-116 colon) of the same compound?
Answer: 4.46 µM

Question: What about the TGI (HCT-116 colon) of the same compound?
Answer: 33.9 µM

Question: And the GI50 (NCI-H460 NSCLC)?
Answer: 3.86 µM

Question: And the TGI (NCI-H460 NSCLC)?
Answer: > 100 µM

Question: And the GI50 (MDA-MB-231 breast)?
Answer: 5.23 µM

Question: What about the TGI (MDA-MB-231 breast) of the same compound?
Answer: 29.4 µM

Question: And the GI50 (UO-31 renal)?
Answer: 57.3 µM

Question: And the TGI (UO-31 renal)?
Answer: > 100 µM

Question: What about the GI50 (HOP-92 NSCLC) of the same compound?
Answer: 3.45 µM

Question: What about the TGI (HOP-92 NSCLC) of the same compound?
Answer: 17 µM

Question: And the GI50 (SF-268 CNS)?
Answer: 7.32 µM

Question: What about the TGI (SF-268 CNS) of the same compound?
Answer: 55.9 µM

Question: What about the GI50 (A498 renal) of the same compound?
Answer: 6.17 µM

Question: What about the TGI (A498 renal) of the same compound?
Answer: 27.2 µM

Question: And the GI50 (MDA-MB-468 breast)?
Answer: 51.7 µM

Question: And the TGI (MDA-MB-468 breast)?
Answer: > 100 µM

Question: And the GI50 (NCI-H322M lung)?
Answer: 13.4 µM

Question: And the TGI (NCI-H322M lung)?
Answer: > 100 µM

Question: And the GI50 (NCI-H23 lung)?
Answer: 4.65 µM

Question: What about the TGI (NCI-H23 lung) of the same compound?
Answer: 24.4 µM

Question: What about the GI50 (SK-OV-3 ovarian) of the same compound?
Answer: 8.22 µM

Question: And the TGI (SK-OV-3 ovarian)?
Answer: 40.4 µM

Question: And the GI50 (KM12 colon)?
Answer: 7.76 µM

Question: And the TGI (KM12 colon)?
Answer: 89.6 µM

Question: What about the GI50 (SF-539 CNS) of the same compound?
Answer: 5.6 µM

Question: What about the TGI (SF-539 CNS) of the same compound?
Answer: 21.4 µM

Question: And the GI50 (SF-295 CNS)?
Answer: 15 µM

Question: And the TGI (SF-295 CNS)?
Answer: 47.1 µM

Question: What about the GI50 (SK-MEL-5 melanoma) of the same compound?
Answer: 3.12 µM

Question: And the TGI (SK-MEL-5 melanoma)?
Answer: 17.8 µM

Question: And the GI50 (HCC-2998 colon)?
Answer: 1.48 µM

Question: What about the TGI (HCC-2998 colon) of the same compound?
Answer: 11.2 µM

Question: And the GI50 (NCI/ADR-RES ovarian)?
Answer: 46.9 µM

Question: And the TGI (NCI/ADR-RES ovarian)?
Answer: > 100 µM

Question: What about the GI50 (UACC-62 melanoma) of the same compound?
Answer: 1.58 µM

Question: What about the TGI (UACC-62 melanoma) of the same compound?
Answer: 4.91 µM

Question: What about the GI50 (HCT-15 colon) of the same compound?
Answer: 65.1 µM

Question: What about the TGI (HCT-15 colon) of the same compound?
Answer: > 100 µM

Question: What about the GI50 (TK-10 renal) of the same compound?
Answer: 19 µM

Question: What about the TGI (TK-10 renal) of the same compound?
Answer: > 100 µM

Question: And the GI50 (LOX IMVI melanoma)?
Answer: 24.7 µM

Question: What about the TGI (LOX IMVI melanoma) of the same compound?
Answer: > 100 µM

Question: And the GI50 (HT29 colon)?
Answer: 5.56 µM

Question: What about the TGI (HT29 colon) of the same compound?
Answer: > 100 µM

Question: And the GI50 (NCI-H522 lung)?
Answer: 7.86 µM

Question: And the TGI (NCI-H522 lung)?
Answer: 67.7 µM

Question: And the GI50 (MCF7 breast)?
Answer: 14.6 µM

Question: And the TGI (MCF7 breast)?
Answer: > 100 µM

Question: What about the GI50 (SNB-19 CNS) of the same compound?
Answer: 3.16 µM

Question: What about the TGI (SNB-19 CNS) of the same compound?
Answer: 16.6 µM

Question: And the GI50 (CAKI-1 renal)?
Answer: 4.93 µM

Question: What about the TGI (CAKI-1 renal) of the same compound?
Answer: 22.7 µM

Question: And the GI50 (SNB-75 CNS)?
Answer: 2.61 µM

Question: What about the TGI (SNB-75 CNS) of the same compound?
Answer: 16.2 µM

Question: And the GI50 (HL-60(TB) leukemia)?
Answer: 1.15 µM

Question: What about the TGI (HL-60(TB) leukemia) of the same compound?
Answer: 3.91 µM

Question: What about the GI50 (HOP-62 NSCLC) of the same compound?
Answer: 6.88 µM

Question: And the TGI (HOP-62 NSCLC)?
Answer: 45.3 µM

Question: And the GI50 (K-562 leukemia)?
Answer: 3.25 µM

Question: What about the TGI (K-562 leukemia) of the same compound?
Answer: > 100 µM

Question: What about the GI50 (OVCAR-8 ovarian) of the same compound?
Answer: 4.15 µM

Question: And the TGI (OVCAR-8 ovarian)?
Answer: 58.3 µM

Question: What about the GI50 (OVCAR-3 ovarian) of the same compound?
Answer: 3.58 µM

Question: What about the TGI (OVCAR-3 ovarian) of the same compound?
Answer: 35.3 µM

Question: What about the GI50 (RXF 393 renal) of the same compound?
Answer: 4.41 µM

Question: What about the TGI (RXF 393 renal) of the same compound?
Answer: 24.7 µM

Question: What about the GI50 ([…]-0 renal) of the same compound?
Answer: 3.83 µM

Question: What about the TGI (786-0 renal) of the same compound?
Answer: 20.7 µM

Question: What about the GI50 (MALME-3M melanoma) of the same compound?
Answer: 0.713 µM

Question: What about the TGI (MALME-3M melanoma) of the same compound?
Answer: 2.59 µM

Question: What about the GI50 (CCRF-CEM leukemia) of the same compound?
Answer: 98.4 µM

Question: What about the TGI (CCRF-CEM leukemia) of the same compound?
Answer: > 100 µM

Question: And the GI50 (MDA-MB-435 melanoma)?
Answer: 8.14 µM

Question: And the TGI (MDA-MB-435 melanoma)?
Answer: > 100 µM

Question: And the GI50 (DU-145 prostate)?
Answer: 12.6 µM

Question: And the TGI (DU-145 prostate)?
Answer: > 100 µM

Question: What about the GI50 (SR leukemia) of the same compound?
Answer: 1.77 µM

Question: What about the TGI (SR leukemia) of the same compound?
Answer: 4.61 µM

Question: And the GI50 (SW-620 colon)?
Answer: 3.4 µM

Question: And the TGI (SW-620 colon)?
Answer: > 100 µM

Question: What about the GI50 (UACC-257 melanoma) of the same compound?
Answer: 3.77 µM

Question: And the TGI (UACC-257 melanoma)?
Answer: 18.5 µM

Question: And the GI50 (SK-MEL-28 melanoma)?
Answer: 2.49 µM

Question: And the TGI (SK-MEL-28 melanoma)?
Answer: 11.6 µM

Question: What about the GI50 (EKVX NSCLC) of the same compound?
Answer: 11.6 µM

Question: And the TGI (EKVX NSCLC)?
Answer: > 100 µM

Question: What about the GI50 (BT-549 breast) of the same compound?
Answer: 7.62 µM

Question: What about the TGI (BT-549 breast) of the same compound?
Answer: 52.7 µM

Question: And the GI50 (SN12C renal)?
Answer: 4.43 µM

Question: And the TGI (SN12C renal)?
Answer: 66.8 µM

Question: What about the GI50 (MOLT-4 leukemia) of the same compound?
Answer: > 100 µM

Question: What about the TGI (MOLT-4 leukemia) of the same compound?
Answer: > 100 µM

Question: What about the GI50 (NCI-H226 lung) of the same compound?
Answer: 4.84 µM

Question: And the TGI (NCI-H226 lung)?
Answer: 27.2 µM

Question: What about the GI50 (T-47D breast) of the same compound?
Answer: 7.89 µM

Question: And the TGI (T-47D breast)?
Answer: > 100 µM

Question: And the GI50 (RPMI-8226 leukemia)?
Answer: 8.12 µM

Question: And the TGI (RPMI-8226 leukemia)?
Answer: > 100 µM

Question: What about the GI50 (COLO 205 colon) of the same compound?
Answer: 3.04 µM

Question: And the TGI (COLO 205 colon)?
Answer: 20.7 µM
